Calls of active or inactive are those of the source. Rule as the data show it, for most assays here: actives have a measured EC50 and inactives only a lower limit. A value given as a limit tells only on which side of the number the result lay.

One may read the EC50 as the concentration needed to bring the measured effect to its halfway point. Usually AC50 stands for the midpoint of the concentration-response curve, whichever way the signal moves.

Tested on in the first assay: not listed separately
In words: inhibitors of firefly luciferase expression or activity, dose response, H4 neuroglioma cells, luminescence (AID 1990). The format is functional, cell-based.
Details: not given
For `Cc1cc(C)c2c(N)c(C(=O)c3ccc(Cl)cc3Cl)sc2n1`, the EC50 is 12.2 µM (active).
With `Cc1ccc(S(=O)(=O)N(C)CC(=O)N/N=C/c2ccc(C)o2)cc1`, the EC50 was > 120 µM (not active).

In a further assay the target is T1, RNA-binding protein pos-1 (Caenorhabditis elegans, UniProt G5EF15).
T1 sequence (G5EF15 whole entry): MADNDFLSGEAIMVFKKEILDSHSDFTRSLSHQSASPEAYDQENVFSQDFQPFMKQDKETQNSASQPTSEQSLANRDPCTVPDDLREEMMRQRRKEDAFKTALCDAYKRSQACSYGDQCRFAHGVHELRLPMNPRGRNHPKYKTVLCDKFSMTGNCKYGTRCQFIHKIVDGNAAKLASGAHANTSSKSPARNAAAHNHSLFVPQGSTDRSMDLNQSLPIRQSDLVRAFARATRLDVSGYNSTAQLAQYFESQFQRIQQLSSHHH
In words: inhibitors of POS-1/mex-3 RNA binding, dose response, biochemical, fluorescence polarization (AID 1964).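 Also: purified POS-1 fused to maltose binding protein made in E. coli; potency of compounds blocking POS-1 binding to fluorescent RNA.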
Details: not given
On the technique in general: Polarisation of emitted light reports the rotation of a fluorescent probe.
Consider `CCN(CC)c1ccc(N/C=C2/C(=O)NC(=O)N(Cc3ccccc3)C2=O)cc1`, for which the EC50 was > 300 µM (not active).

For another assay, the system named is Streptococcus sp. 'group A'. In words: growth inhibition of control SK(-) GAS strain, dose response, counter-screen for streptokinase expression inhibitor project, luminescence, kanamycin, BacTiterGlo, confirmation (AID 1900). The format is functional, organism-based.
Details: not given
On the technique in general: The purpose of a counterscreen is to sort out artefacts and off-target activity.
For `CCCOC(=O)c1ccc(Oc2c[nH]nc2-c2ccc(O)cc2O)cc1`, the EC50 is recorded as > 150 µM (not active).
For `Cc1cn(-c2cc(C(=O)Nc3ccc(C)c(NC(=O)C(=O)c4c[nH]c5ccccc45)c3)cc(C(F)(F)F)c2)cn1`, the EC50 is 2.38 µM (active).

Tested on in the next assay: not listed separately
The assay can be described thus: Luminescence Cell-Based Dose Response HTS to Identify Inhibitors of 5'UTR Stem-Loop Driven Prion Protein mRNA Translation in H4 Neuroglioblastoma Cells. [Related pubchem assays: 1827 (Project Summary), 1813 (Primary HTS)]. The format is functional.
Details: not given
For the compound `Cc1cn(-c2cc(C(=O)Nc3ccc(C)c(NC(=O)C(=O)c4c[nH]c5ccccc45)c3)cc(C(F)(F)F)c2)cn1`, the EC50 is 23 µM (active).
Still for that read-out and setting: the value for `Cc1cc(C)c2c(N)c(C(=O)c3ccc(Cl)cc3Cl)sc2n1` was 19.4 µM (active).
The same measure, in the same setting: under `Cc1ccc(S(=O)(=O)N(C)CC(=O)N/N=C/c2ccc(C)o2)cc1` stands > 120 µM (not active).

Tested on in a further assay: not listed separately
The assay can be described thus: inhibitors of SNCA 5'UTR-driven reporter translation, confirmation, H4 neuroglioma cells, luminescence (AID 1988). The format is functional, cell-based.
Details: not given
Consider `Cc1cc(C)c2c(N)c(C(=O)c3ccc(Cl)cc3Cl)sc2n1`, for which the EC50 was 13.8 µM (active).
The same measure, in the same setting: under `Cc1ccc(S(=O)(=O)N(C)CC(=O)N/N=C/c2ccc(C)o2)cc1` stands > 120 µM (not active).

The next assay addresses T2, Streptokinase A (Streptococcus pyogenes serotype M1, UniProt P10520).
T2 sequence (P10520 whole entry): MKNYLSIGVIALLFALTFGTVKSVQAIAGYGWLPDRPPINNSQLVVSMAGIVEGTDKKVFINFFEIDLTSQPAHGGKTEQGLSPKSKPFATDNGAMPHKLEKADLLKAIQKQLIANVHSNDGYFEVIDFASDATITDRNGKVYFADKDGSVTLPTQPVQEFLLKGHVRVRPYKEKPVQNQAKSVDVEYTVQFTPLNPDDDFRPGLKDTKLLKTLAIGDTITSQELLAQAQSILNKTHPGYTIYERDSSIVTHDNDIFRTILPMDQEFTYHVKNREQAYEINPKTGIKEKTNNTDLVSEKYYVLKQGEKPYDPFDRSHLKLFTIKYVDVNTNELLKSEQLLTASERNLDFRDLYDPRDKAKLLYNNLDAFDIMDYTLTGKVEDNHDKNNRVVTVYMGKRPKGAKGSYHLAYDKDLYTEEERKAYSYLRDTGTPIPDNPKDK
In words: S. pyogenes streptokinase expression inhibitors, potency, dose response, plasminogen activation absorbance, OD405 (AID 1914).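 Also: secreted streptokinase activity via plasminogen activation per viability signal from cell pellet.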 It is filed as functional, Streptococcus pyogenes M1 GAS.
Details: not given
For `CCCOC(=O)c1ccc(Oc2c[nH]nc2-c2ccc(O)cc2O)cc1`, the EC50 is on record as > 150 µM (not active).

Another assay concerns Streptococcus. The assay can be described thus: Group A Streptococcus viability loss, dose response, counter-screen for streptokinase expression inhibitor project, luminescence, BacTiterGlo (AID 1915).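 Also: potency for reduction of bacterial viability or growth.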 It is filed as functional, organism-based.
Details: not given
Take `CCCOC(=O)c1ccc(Oc2c[nH]nc2-c2ccc(O)cc2O)cc1`: the EC50 was > 150 µM (not active).
As for `Cc1cn(-c2cc(C(=O)Nc3ccc(C)c(NC(=O)C(=O)c4c[nH]c5ccccc45)c3)cc(C(F)(F)F)c2)cn1`, the EC50 was 3.39 µM (active).

Tested on in a further assay: not listed separately
The assay can be described thus: Luminescence Cell-Based Dose Retest to Confirm Inhibitors of Cancer Stem Cells. [Related pubchem assays (depositor defined):AID2717, AID2721]. It is filed as functional, Homo sapiens.
Details: not given
Turning to `CCN(CC)CCOc1ccc(/C(=C(/Cl)c2ccccc2)c2ccccc2)cc1` [CLOMIPHENE], the AC50 was 1.35 µM (active).

The assay is the same for the next values; noted with them: Homo sapiens.
`Cc1cn(-c2cc(C(=O)Nc3ccc(C)c(NC(=O)C(=O)c4c[nH]c5ccccc45)c3)cc(C(F)(F)F)c2)cn1`: the AC50 is 2.18 µM (active).

In the next assay the target is T3, Heat shock factor protein 1 (Mus musculus, UniProt P38532).
T3 sequence (P38532 whole entry): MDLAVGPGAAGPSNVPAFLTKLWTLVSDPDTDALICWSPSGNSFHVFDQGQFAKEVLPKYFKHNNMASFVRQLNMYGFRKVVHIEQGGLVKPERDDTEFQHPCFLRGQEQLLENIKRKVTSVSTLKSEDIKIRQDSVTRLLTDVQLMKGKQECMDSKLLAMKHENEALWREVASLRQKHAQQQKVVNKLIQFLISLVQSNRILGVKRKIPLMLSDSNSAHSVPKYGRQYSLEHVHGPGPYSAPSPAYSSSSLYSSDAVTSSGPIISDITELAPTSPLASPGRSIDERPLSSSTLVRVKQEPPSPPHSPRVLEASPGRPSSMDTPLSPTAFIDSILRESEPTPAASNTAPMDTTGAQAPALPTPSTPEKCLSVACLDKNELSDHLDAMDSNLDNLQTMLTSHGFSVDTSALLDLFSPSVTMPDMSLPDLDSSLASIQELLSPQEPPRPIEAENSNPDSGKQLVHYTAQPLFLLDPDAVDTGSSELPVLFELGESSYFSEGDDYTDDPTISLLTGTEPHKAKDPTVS
In words: HSF1 potentiators in luciferase reporter cells, confirmation, cell-based, NIH3T3, luminescence, dose retest (AID 435004).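 Also: stress induced by proteasome inhibitor MG132 added 30 min after compound; luciferase reporter driven by HSF1 response element in NIH3T3 cells; actives raise luminescence as potentiators of the MG132 stress response.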
Details: not given
It is filed as functional.
On to `CCCOC(=O)c1ccc(Oc2c[nH]nc2-c2ccc(O)cc2O)cc1`, for which the EC50 was > 260 µM (inactive).
Same read-out and setting: the value for `O=C(Nc1ccc(Cl)cc1)Nc1csc([N+](=O)[O-])c1` was 31.4 µM (active).
The same measure, in the same setting: under `CC(Oc1ccc(Cl)cc1)C(=O)/C=C/N(C)C` (stereo not drawn) stands > 260 µM (inactive).
On the same count and under the same terms, the value for `CCN(CC)CCOc1ccc(/C(=C(/Cl)c2ccccc2)c2ccccc2)cc1` [CLOMIPHENE] was 129 µM (active).

The next assay deals with T4, Replicative DNA helicase DnaB (Mycobacterium tuberculosis, UniProt P9WMR3).
T4 sequence (P9WMR3 whole entry): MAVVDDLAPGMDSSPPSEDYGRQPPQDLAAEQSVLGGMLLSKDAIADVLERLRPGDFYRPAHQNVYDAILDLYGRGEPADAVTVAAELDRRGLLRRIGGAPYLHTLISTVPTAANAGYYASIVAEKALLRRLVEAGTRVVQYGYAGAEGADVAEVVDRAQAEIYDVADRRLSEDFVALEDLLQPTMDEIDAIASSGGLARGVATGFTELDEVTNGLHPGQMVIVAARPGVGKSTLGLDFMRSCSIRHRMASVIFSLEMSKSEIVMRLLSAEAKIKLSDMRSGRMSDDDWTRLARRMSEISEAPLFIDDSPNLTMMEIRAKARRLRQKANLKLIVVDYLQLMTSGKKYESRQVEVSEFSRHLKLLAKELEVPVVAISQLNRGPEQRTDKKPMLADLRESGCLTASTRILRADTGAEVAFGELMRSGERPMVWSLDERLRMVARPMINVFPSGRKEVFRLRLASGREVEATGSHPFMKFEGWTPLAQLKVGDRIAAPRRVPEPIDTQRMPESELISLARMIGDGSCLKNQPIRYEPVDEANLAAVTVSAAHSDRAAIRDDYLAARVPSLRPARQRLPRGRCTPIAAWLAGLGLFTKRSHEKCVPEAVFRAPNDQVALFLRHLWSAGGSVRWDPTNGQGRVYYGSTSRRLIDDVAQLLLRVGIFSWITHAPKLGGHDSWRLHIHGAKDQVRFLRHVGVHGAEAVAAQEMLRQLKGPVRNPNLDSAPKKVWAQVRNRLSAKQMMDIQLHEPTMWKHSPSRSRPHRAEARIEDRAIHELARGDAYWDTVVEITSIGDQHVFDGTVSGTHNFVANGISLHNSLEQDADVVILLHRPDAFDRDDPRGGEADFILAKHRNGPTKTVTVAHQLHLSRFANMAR
In words: DnaB intein splicing inhibitors, dose response, biochemical, cell-free fluorescence (AID 449749). The format is functional.
Details: not given
Take `CCN(CC)CCOc1ccc(/C(=C(/Cl)c2ccccc2)c2ccccc2)cc1` [CLOMIPHENE]: the AC50 is 4.34 µM (active).

The next assay has as its target T5, Protein RecA (Mycobacterium tuberculosis, UniProt P9WHJ3).
T5 sequence (P9WHJ3 whole entry): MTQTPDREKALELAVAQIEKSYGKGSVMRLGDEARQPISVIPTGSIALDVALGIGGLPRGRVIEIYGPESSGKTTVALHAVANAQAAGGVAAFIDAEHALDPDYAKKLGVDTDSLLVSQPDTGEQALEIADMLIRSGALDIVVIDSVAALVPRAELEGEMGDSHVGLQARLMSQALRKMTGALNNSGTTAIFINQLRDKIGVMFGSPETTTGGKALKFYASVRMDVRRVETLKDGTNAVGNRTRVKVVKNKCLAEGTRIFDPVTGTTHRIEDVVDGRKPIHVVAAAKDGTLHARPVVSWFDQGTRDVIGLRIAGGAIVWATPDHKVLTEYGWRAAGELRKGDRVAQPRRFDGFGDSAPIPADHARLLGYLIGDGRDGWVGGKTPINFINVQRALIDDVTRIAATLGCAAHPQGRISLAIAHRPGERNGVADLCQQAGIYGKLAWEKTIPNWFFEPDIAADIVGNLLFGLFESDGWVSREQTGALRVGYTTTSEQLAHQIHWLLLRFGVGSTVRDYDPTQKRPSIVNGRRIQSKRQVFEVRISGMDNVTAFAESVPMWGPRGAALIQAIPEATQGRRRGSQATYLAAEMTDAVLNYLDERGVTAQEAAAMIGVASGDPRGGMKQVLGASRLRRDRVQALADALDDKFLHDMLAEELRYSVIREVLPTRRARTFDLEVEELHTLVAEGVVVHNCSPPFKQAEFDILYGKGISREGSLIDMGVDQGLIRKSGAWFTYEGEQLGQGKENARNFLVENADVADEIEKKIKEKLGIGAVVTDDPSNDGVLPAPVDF
The assay can be described thus: Fluorescence Cell-Free Homogeneous Dose Retest to Identify Inhibitors of RecA-Intein Splicing Activity. [Related pubchem assays (depositor defined):AID2097, AID2223, AID489010, AID492950].
Details: not given
It is filed as functional.
As to `CCN(CC)CCOc1ccc(/C(=C(/Cl)c2ccccc2)c2ccccc2)cc1` [CLOMIPHENE], the EC50 was 12.4 µM (active).

The subject of another assay is INS1. In words: beta cell apoptosis inhibitors, cytokine rescue, dose response, luminescence, retest (AID 449756).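 Also: cell death triggered by IL-1 beta plus TNF-alpha plus IFN-gamma mixture; protective hits raise ATP signal compared with cytokine alone wells.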 It is filed as functional, cell-based. The settings on record: Rattus norvegicus.
In the case of `O=C(Nc1ccc(Cl)cc1)Nc1csc([N+](=O)[O-])c1`, the AC50 is 7.03 µM (active).

A further assay concerns the target T6, Cytochrome P450 1A2 (Homo sapiens, UniProt P05177).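 Also: PubChem cytochrome P450 panel assay, CYP1A2 panel member.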
T6 sequence (P05177 whole entry): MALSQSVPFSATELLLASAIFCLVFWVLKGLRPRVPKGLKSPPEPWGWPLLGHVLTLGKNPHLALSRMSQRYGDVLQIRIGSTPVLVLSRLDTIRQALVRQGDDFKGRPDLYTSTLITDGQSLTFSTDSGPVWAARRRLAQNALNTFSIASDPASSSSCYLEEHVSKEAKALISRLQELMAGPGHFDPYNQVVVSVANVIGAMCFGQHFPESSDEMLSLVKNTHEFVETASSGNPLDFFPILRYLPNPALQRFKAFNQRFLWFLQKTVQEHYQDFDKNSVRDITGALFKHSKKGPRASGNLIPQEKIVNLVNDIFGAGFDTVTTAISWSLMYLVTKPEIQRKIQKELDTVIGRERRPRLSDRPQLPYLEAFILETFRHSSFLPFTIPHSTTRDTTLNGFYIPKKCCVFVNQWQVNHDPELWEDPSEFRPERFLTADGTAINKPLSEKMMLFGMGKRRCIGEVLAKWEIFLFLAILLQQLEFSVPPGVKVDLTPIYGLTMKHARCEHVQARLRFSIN
Details: not given
For `CC(Oc1ccc(Cl)cc1)C(=O)/C=C/N(C)C` (stereo not drawn), the AC50 is 15.8 µM (inconclusive).
